Measured values reported in ChEMBL document CHEMBL3880421, “Indazole compounds and pharmaceutical compositions for inhibiting protein kinases, and methods for their use” (2003).

How the values were obtained:
[1] = Antiproliferative activity against VEGF-stimulated HUVEC cells assessed as reduction in cell viability at 0.5 nM preincubated for 1 hr followed by addition of VEGF measured after 72 hrs by MTT assay; assay type: functional; details: Homo sapiens
[2] = Antiproliferative activity against VEGF-stimulated HUVEC cells assessed as reduction in cell viability at 2 nM preincubated for 1 hr followed by addition of VEGF measured after 72 hrs by MTT assay; assay type: functional; details: Homo sapiens

Row | SMILES | inhibition at 0.0005 µM [1] | inhibition at 0.002 µM [2]
1 | NS(=O)(=O)c1ccc(CCNC(=O)c2ccccc2Nc2ccc3c(/C=C/c4ccccn4)n[nH]c3c2)cc1 | 26% | 37%
2 | O=C(NCCc1c[nH]cn1)c1ccccc1Nc1ccc2c(/C=C/c3ccccn3)n[nH]c2c1 | 23% | -32%
3 | CC1CCC(NC(=O)c2ccccc2Nc2ccc3c(/C=C/c4ccccn4)n[nH]c3c2)CC1 (centres undefined) | -11% | 42%
4 | COC[C@H]1CCCN1NC(=O)c1ccccc1Nc1ccc2c(/C=C/c3ccccn3)n[nH]c2c1 | 18% | 11%
5 | C=CCNC(=O)c1ccccc1Nc1ccc2c(/C=C/c3ccccn3)n[nH]c2c1 | 30% | 86%
6 | O=C(Nc1nc2ccccc2[nH]1)c1ccccc1Nc1ccc2c(/C=C/c3ccccn3)n[nH]c2c1 | 18% | 43%
7 | O=C(Nc1cc[nH]n1)c1ccccc1Nc1ccc2c(/C=C/c3ccccn3)n[nH]c2c1 | 20% | 25%
8 | CC1(C)CC(NC(=O)c2ccccc2Nc2ccc3c(/C=C/c4ccccn4)n[nH]c3c2)CC(C)(C)N1 | 35% | 10%
9 | O=C(NNC(=O)c1ccccc1Nc1ccc2c(/C=C/c3ccccn3)n[nH]c2c1)c1cccs1 | 65% | 90%
10 | O=C(NCCCCc1ccccc1)c1ccccc1Nc1ccc2c(/C=C/c3ccccn3)n[nH]c2c1 | 51% | 67%
11 | O=C(NOCC(=O)N1CCOCC1)c1ccccc1Nc1ccc2c(/C=C/c3ccccn3)n[nH]c2c1 | 15% | -1%
12 | Cc1cc(NC(=O)c2ccccc2Nc2ccc3c(/C=C/c4ccccn4)n[nH]c3c2)n(C)n1 | 39% | 13%
13 | CCN(CC)CCNC(=O)c1ccccc1Nc1ccc2c(/C=C/c3ccccn3)n[nH]c2c1 | 39% | 15%
14 | O=C(NC1CC1)c1ccccc1Nc1ccc2c(/C=C/c3ccccn3)n[nH]c2c1 | 59% | 97%
15 | O=C(NC1CCCCCCC1)c1ccccc1Nc1ccc2c(/C=C/c3ccccn3)n[nH]c2c1 | 14% | 60%
16 | NC(=O)C[C@@H](NC(=O)c1ccccc1Nc1ccc2c(/C=C/c3ccccn3)n[nH]c2c1)C(N)=O | 21% | 15%
17 | CCn1nccc1NC(=O)c1ccccc1Nc1ccc2c(/C=C/c3ccccn3)n[nH]c2c1 | 26% | 2%
18 | NC(=O)NNC(=O)c1ccccc1Nc1ccc2c(/C=C/c3ccccn3)n[nH]c2c1 | 19% | 5%
19 | O=C(NC1CCCCC1)c1ccccc1Nc1ccc2c(/C=C/c3ccccn3)n[nH]c2c1 | 12% | 76%
20 | NS(=O)(=O)c1ccc(CNC(=O)c2ccccc2Nc2ccc3c(/C=C/c4ccccn4)n[nH]c3c2)cc1 | 1% | 13%
21 | O=C(NNC(=O)c1ccccc1Nc1ccc2c(/C=C/c3ccccn3)n[nH]c2c1)c1ccco1 | 26% | 71%
22 | Nc1ccc(CNC(=O)c2ccccc2Nc2ccc3c(/C=C/c4ccccn4)n[nH]c3c2)cc1 | 45% | 88%
23 | CN(NC(=O)c1ccccc1Nc1ccc2c(/C=C/c3ccccn3)n[nH]c2c1)c1ccccc1 | 16% | 37%

Row | SMILES | inhibition at 0.0005 µM [1] | inhibition at 0.002 µM [2]
24 | Cc1ccc(N(C)NC(=O)c2ccccc2Nc2ccc3c(/C=C/c4ccccn4)n[nH]c3c2)nn1 | 18% | -3%
25 | COc1cccc(CNC(=O)c2ccccc2Nc2ccc3c(/C=C/c4ccccn4)n[nH]c3c2)c1 | 58% | 100%
26 | O=C(NNc1ccccc1)c1ccccc1Nc1ccc2c(/C=C/c3ccccn3)n[nH]c2c1 | 18% | 29%
27 | CCCCCC(C)NC(=O)c1ccccc1Nc1ccc2c(/C=C/c3ccccn3)n[nH]c2c1 (centres undefined) | -1% | 14%
28 | CC(C)(N)CNC(=O)c1ccccc1Nc1ccc2c(/C=C/c3ccccn3)n[nH]c2c1 | 31% | 3%
29 | CCN1CCC[C@H]1CNC(=O)c1ccccc1Nc1ccc2c(/C=C/c3ccccn3)n[nH]c2c1 | 15% | 23%
30 | Cc1ccc(CNC(=O)c2ccccc2Nc2ccc3c(/C=C/c4ccccn4)n[nH]c3c2)o1 | 56% | 96%
31 | CSCCCNC(=O)c1ccccc1Nc1ccc2c(/C=C/c3ccccn3)n[nH]c2c1 | 44% | 100%
32 | COCC(C)NC(=O)c1ccccc1Nc1ccc2c(/C=C/c3ccccn3)n[nH]c2c1 (centres undefined) | 18% | 32%
33 | CCCNC(=O)c1ccccc1Nc1ccc2c(/C=C/c3ccccn3)n[nH]c2c1 | 33% | 64%
34 | Cc1ncc(CNC(=O)c2ccccc2Nc2ccc3c(/C=C/c4ccccn4)n[nH]c3c2)c(N)n1 | 16% | 17%
35 | CC(C)CCCC(C)NC(=O)c1ccccc1Nc1ccc2c(/C=C/c3ccccn3)n[nH]c2c1 (centres undefined) | 20% | 32%
36 | O=C(NCCN1CCNC1=O)c1ccccc1Nc1ccc2c(/C=C/c3ccccn3)n[nH]c2c1 | 5% | 1%
37 | CCC(CO)NC(=O)c1ccccc1Nc1ccc2c(/C=C/c3ccccn3)n[nH]c2c1 (centres undefined) | 22% | 23%
38 | Cc1cc(NC(=O)c2ccccc2Nc2ccc3c(/C=C/c4ccccn4)n[nH]c3c2)no1 | 28% | 14%
39 | O=C(NCCNc1ccccc1)c1ccccc1Nc1ccc2c(/C=C/c3ccccn3)n[nH]c2c1 | 19% | 89%
40 | O=C(NCCO)c1ccccc1Nc1ccc2c(/C=C/c3ccccn3)n[nH]c2c1 | 18% | 24%
41 | O=C(O)CCNC(=O)c1ccccc1Nc1ccc2c(/C=C/c3ccccn3)n[nH]c2c1 | 4% | 20%
42 | NC(=O)CNC(=O)c1ccccc1Nc1ccc2c(/C=C/c3ccccn3)n[nH]c2c1 | 6% | 4%
43 | O=C(NN1CCN(CCO)CC1)c1ccccc1Nc1ccc2c(/C=C/c3ccccn3)n[nH]c2c1 | 25% | 25%
44 | CCCC(C)NC(=O)c1ccccc1Nc1ccc2c(/C=C/c3ccccn3)n[nH]c2c1 (centres undefined) | 29% | 92%
45 | CN(C)CCNC(=O)c1ccccc1Nc1ccc2c(/C=C/c3ccccn3)n[nH]c2c1 | 20% | 10%
46 | CC(CCc1ccccc1)NC(=O)c1ccccc1Nc1ccc2c(/C=C/c3ccccn3)n[nH]c2c1 (centres undefined) | 50% | 40%

Row | SMILES | inhibition at 0.0005 µM [1] | inhibition at 0.002 µM [2]
47 | CN(NC(=O)c1ccccc1Nc1ccc2c(/C=C/c3ccccn3)n[nH]c2c1)C(N)=S | 12% | 29%
48 | O=C(NNC1=NCCN1)c1ccccc1Nc1ccc2c(/C=C/c3ccccn3)n[nH]c2c1 | 34% | 69%
49 | O=C(Nc1nncs1)c1ccccc1Nc1ccc2c(/C=C/c3ccccn3)n[nH]c2c1 | 44% | 28%
50 | O=C(NCc1ccncc1)c1ccccc1Nc1ccc2c(/C=C/c3ccccn3)n[nH]c2c1 | 34% | 58%
51 | CCOCCCNC(=O)c1ccccc1Nc1ccc2c(/C=C/c3ccccn3)n[nH]c2c1 | 44% | 97%
52 | O=C(NN1CCCC1)c1ccccc1Nc1ccc2c(/C=C/c3ccccn3)n[nH]c2c1 | 17% | 23%
53 | CC(C)CCNC(=O)c1ccccc1Nc1ccc2c(/C=C/c3ccccn3)n[nH]c2c1 | 14 to 47% | 47 to 55%
54 | CC1CCCC(NC(=O)c2ccccc2Nc2ccc3c(/C=C/c4ccccn4)n[nH]c3c2)C1 (centres undefined) | 69% | 59%
55 | O=C1CSC(NC(=O)c2ccccc2Nc2ccc3c(/C=C/c4ccccn4)n[nH]c3c2)=N1 | 9% | -9%
56 | CCCCC(CC)NC(=O)c1ccccc1Nc1ccc2c(/C=C/c3ccccn3)n[nH]c2c1 (centres undefined) | 31% | 30%
57 | CN1CCN(NC(=O)c2ccccc2Nc2ccc3c(/C=C/c4ccccn4)n[nH]c3c2)CC1 | 19 to 38% | -1%
58 | CC(C)C(NC(=O)c1ccccc1Nc1ccc2c(/C=C/c3ccccn3)n[nH]c2c1)C(C)C | 18% | -2%
59 | O=C(O)CNC(=O)c1ccccc1Nc1ccc2c(/C=C/c3ccccn3)n[nH]c2c1 | 8% | 23%
60 | CC(CO)NC(=O)c1ccccc1Nc1ccc2c(/C=C/c3ccccn3)n[nH]c2c1 (centres undefined) | 19% | 28%
61 | O=C(NCCN1CCCC1)c1ccccc1Nc1ccc2c(/C=C/c3ccccn3)n[nH]c2c1 | 40% | 31%
62 | CC(C)NC(=O)c1ccccc1Nc1ccc2c(/C=C/c3ccccn3)n[nH]c2c1 | 22% | 43%
63 | O=C(NCCOc1ccccc1)c1ccccc1Nc1ccc2c(/C=C/c3ccccn3)n[nH]c2c1 | 16% | 73%
64 | CC(C)[C@H](CO)NC(=O)c1ccccc1Nc1ccc2c(/C=C/c3ccccn3)n[nH]c2c1 | 47% | -4%
65 | Cn1cncc1CCNC(=O)c1ccccc1Nc1ccc2c(/C=C/c3ccccn3)n[nH]c2c1 | -6% | 0%
66 | O=C(NCCN1CCOCC1)c1ccccc1Nc1ccc2c(/C=C/c3ccccn3)n[nH]c2c1 | 28% | 22%
67 | COCCCNC(=O)c1ccccc1Nc1ccc2c(/C=C/c3ccccn3)n[nH]c2c1 | 26% | 31%
